Assays:
Assay in all cases: relative viability (nuclei count vs DMSO), 5 days (fraction); higher = more cells survive
201T = tested on: 201T
Procedure, shortened: (§1)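 Nuclei were stained with Hoechst during a one-step fixation (final 0.05% Triton X-100, 1% formaldehyde, 1 ug/ml Hoechst) carried out 5 days after dosing, then counted on 4× images. The cells, lung cancer lines in 1536-well plates, had been dosed by pin tool the day after seeding with one drug alone or a fixed anchor-drug dose plus five library-drug doses (not always all listed) in √10 steps. Relative viability is the nuclei count in treated wells divided by that in vehicle wells, and each value is the median of duplicate plates.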

ABC-1 = tested on: ABC-1
Procedure, shortened: as §1

EMC-BAC-2 = tested on: EMC-BAC-2
Procedure, shortened: as §1

EPLC-272H = tested on: EPLC-272H
Procedure, shortened: as §1

HCC-78 = tested on: HCC-78
Procedure, shortened: as §1

LOU-NH91 = tested on: LOU-NH91
Procedure, shortened: as §1

NCI-H1395 = tested on: NCI-H1395
Procedure, shortened: as §1

NCI-H1437 = tested on: NCI-H1437
Procedure, shortened: as §1

NCI-H1651 = tested on: NCI-H1651
Procedure, shortened: as §1

NCI-H1734 = tested on: NCI-H1734
Procedure, shortened: as §1

NCI-H1792 = tested on: NCI-H1792
Procedure, shortened: as §1

NCI-H1793 = tested on: NCI-H1793
Procedure, shortened: as §1

NCI-H1915 = tested on: NCI-H1915
Procedure, shortened: as §1

NCI-H1975 = tested on: NCI-H1975
Procedure, shortened: as §1

NCI-H2023 = tested on: NCI-H2023
Procedure, shortened: as §1

NCI-H23 = tested on: NCI-H23
Procedure, shortened: as §1

NCI-H2405 = tested on: NCI-H2405
Procedure, shortened: as §1

NCI-H647 = tested on: NCI-H647
Procedure, shortened: as §1

NCI-H661 = tested on: NCI-H661
Procedure, shortened: as §1

RERF-LC-KJ = tested on: RERF-LC-KJ
Procedure, shortened: as §1

SK-LU-1 = tested on: SK-LU-1
Procedure, shortened: as §1

UMC-11 = tested on: UMC-11
Procedure, shortened: as §1

What does the source list for `Cc1cnc(-c2cnc(NCCNc3ccc(C#N)cn3)nc2-c2ccc(Cl)cc2Cl)[nH]1` + CS(=O)(=O)CCNCc1ccc(-c2ccc3ncnc(Nc4ccc(OCc5cccc(F)c5)c(Cl)c4)c3c2)o1 [Lapatinib] (partner 2 µM)?
relative viability (201T; first compound 0.08 µM): 1.05; relative viability (201T; first compound 0.253 µM): 0.551; relative viability (201T; first compound 0.8 µM): 1.01; relative viability (201T; first compound 2.53 µM): 0.988; relative viability (ABC-1; first compound 0.08 µM): 1.22; relative viability (ABC-1; first compound 0.253 µM): 0.969; relative viability (ABC-1; first compound 0.8 µM): 1.09; relative viability (ABC-1; first compound 2.53 µM): 1.11; relative viability (EMC-BAC-2; first compound 0.08 µM): 1.02; relative viability (EMC-BAC-2; first compound 0.253 µM): 0.808; relative viability (EMC-BAC-2; first compound 0.8 µM): 0.887; relative viability (EMC-BAC-2; first compound 2.53 µM): 0.859; relative viability (EPLC-272H; first compound 0.08 µM): 1.08; relative viability (EPLC-272H; first compound 0.253 µM): 0.88; relative viability (EPLC-272H; first compound 0.8 µM): 0.599; relative viability (EPLC-272H; first compound 2.53 µM): 0.946; relative viability (HCC-78; first compound 0.08 µM): 0.449; relative viability (HCC-78; first compound 0.253 µM): 0.528; relative viability (HCC-78; first compound 0.8 µM): 1.12; relative viability (HCC-78; first compound 2.53 µM): 0.546; relative viability (LOU-NH91; first compound 0.08 µM): 0.811; relative viability (LOU-NH91; first compound 0.253 µM): 0.738; relative viability (LOU-NH91; first compound 0.8 µM): 0.739; relative viability (LOU-NH91; first compound 2.53 µM): 0.866; relative viability (NCI-H1395; first compound 0.08 µM): 1.04; relative viability (NCI-H1395; first compound 0.253 µM): 0.776; relative viability (NCI-H1395; first compound 0.8 µM): 1.07; relative viability (NCI-H1395; first compound 2.53 µM): 0.94; relative viability (NCI-H1437; first compound 0.08 µM): 0.848; relative viability (NCI-H1437; first compound 0.253 µM): 0.715; relative viability (NCI-H1437; first compound 0.8 µM): 0.805; relative viability (NCI-H1437; first compound 2.53 µM): 0.793; relative viability (NCI-H1651; first compound 0.08 µM): 0.937; relative viability (NCI-H1651; first compound 0.253 µM): 0.712; relative viability (NCI-H1651; first compound 0.8 µM): 0.862; relative viability (NCI-H1651; first compound 2.53 µM): 0.917; relative viability (NCI-H1734; first compound 0.08 µM): 1.13; relative viability (NCI-H1734; first compound 0.253 µM): 0.901; relative viability (NCI-H1734; first compound 0.8 µM): 0.882; relative viability (NCI-H1734; first compound 2.53 µM): 1.05; relative viability (NCI-H1792; first compound 0.08 µM): 0.927; relative viability (NCI-H1792; first compound 0.253 µM): 0.756; relative viability (NCI-H1792; first compound 0.8 µM): 0.862; relative viability (NCI-H1792; first compound 2.53 µM): 0.866; relative viability (NCI-H1793; first compound 0.08 µM): 0.608; relative viability (NCI-H1793; first compound 0.253 µM): 0.678; relative viability (NCI-H1793; first compound 0.8 µM): 0.721; relative viability (NCI-H1793; first compound 2.53 µM): 1.02; relative viability (NCI-H1915; first compound 0.08 µM): 0.985; relative viability (NCI-H1915; first compound 0.8 µM): 0.947; relative viability (NCI-H1915; first compound 2.53 µM): 1.04; relative viability (NCI-H1975; first compound 0.08 µM): 1.01; relative viability (NCI-H1975; first compound 0.253 µM): 0.9; relative viability (NCI-H1975; first compound 0.8 µM): 0.694; relative viability (NCI-H1975; first compound 2.53 µM): 0.558; relative viability (NCI-H2023; first compound 0.08 µM): 1.23; relative viability (NCI-H2023; first compound 0.253 µM): 0.431; relative viability (NCI-H2023; first compound 0.8 µM): 0.827; relative viability (NCI-H2023; first compound 2.53 µM): 0.913; relative viability (NCI-H23; first compound 0.08 µM): 1.14; relative viability (NCI-H23; first compound 0.253 µM): 1.02; relative viability (NCI-H23; first compound 0.8 µM): 1.07; relative viability (NCI-H23; first compound 2.53 µM): 1.11; relative viability (NCI-H2405; first compound 0.08 µM): 1.11; relative viability (NCI-H2405; first compound 0.253 µM): 1.01; relative viability (NCI-H2405; first compound 0.8 µM): 0.741; relative viability (NCI-H2405; first compound 2.53 µM): 0.523; relative viability (NCI-H647; first compound 0.08 µM): 1.19; relative viability (NCI-H647; first compound 0.253 µM): 0.838; relative viability (NCI-H647; first compound 0.8 µM): 1.02; relative viability (NCI-H647; first compound 2.53 µM): 0.936; relative viability (NCI-H661; first compound 0.08 µM): 0.523; relative viability (NCI-H661; first compound 0.253 µM): 0.452; relative viability (NCI-H661; first compound 0.8 µM): 0.449; relative viability (NCI-H661; first compound 2.53 µM): 0.54; relative viability (RERF-LC-KJ; first compound 0.08 µM): 0.902; relative viability (RERF-LC-KJ; first compound 0.253 µM): 0.777; relative viability (RERF-LC-KJ; first compound 0.8 µM): 0.771; relative viability (RERF-LC-KJ; first compound 2.53 µM): 0.932; relative viability (SK-LU-1; first compound 0.08 µM): 0.87; relative viability (SK-LU-1; first compound 0.253 µM): 0.96; relative viability (SK-LU-1; first compound 0.8 µM): 0.999; relative viability (SK-LU-1; first compound 2.53 µM): 1.11; relative viability (UMC-11; first compound 0.08 µM): 1.22; relative viability (UMC-11; first compound 0.253 µM): 0.7; relative viability (UMC-11; first compound 0.8 µM): 0.697; relative viability (UMC-11; first compound 2.53 µM): 1.09
